Data published in patent publication US20240228488A1 (TAKEDA PHARMACEUTICAL COMPANY LIMITED, priority 2021, published 2024).

Key:
[1] = molecular target: human activated kallikrein enzyme (Homo sapiens, UniProt P03952); assay: Plasma kallikrein inhibition, fluorogenic PFR-AMC substrate, 500 pM activated kallikrein format; format: biochemical; conditions: 500 pM activated kallikrein, 300 uM PFR-AMC, 30 min preincubation, 10 min reaction; read-out: Primary Dose Response Assay: Average EC50
Outline: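 Enzyme (500 pM) was preincubated with inhibitor for 30 min at room temperature in 20 mM Tris pH 7.5, 1 mM EDTA, 150 mM NaCl, 0.1% PEG-400 and 0.1% Triton X-100. The reaction was started with 300 uM PFR-AMC, run 10 min, and fluorescence read at 460 nm (380 nm excitation). EC50 derived.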

plasma kallikrein = molecular target: T1, plasma kallikrein (Homo sapiens, UniProt P03952); assay: Neat human plasma assay, FXIIa contact pathway-activated, PFR-AMC substrate; format: biochemical; conditions: citrated human plasma 78% final, 10 nM human FXIIa, 100 μM PFR-AMC; read-out: Human Plasma Assay: IC90
T1 construct: from tissue
T1 sequence (P03952 391-638 limits assumed): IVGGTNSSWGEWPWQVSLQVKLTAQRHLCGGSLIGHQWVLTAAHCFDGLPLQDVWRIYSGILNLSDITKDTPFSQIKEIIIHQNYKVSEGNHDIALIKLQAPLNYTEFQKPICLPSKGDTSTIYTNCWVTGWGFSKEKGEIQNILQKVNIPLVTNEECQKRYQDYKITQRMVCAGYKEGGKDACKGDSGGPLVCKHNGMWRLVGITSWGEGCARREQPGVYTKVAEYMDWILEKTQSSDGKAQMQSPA
T1 sequence (P03952 20-390 partner limits assumed): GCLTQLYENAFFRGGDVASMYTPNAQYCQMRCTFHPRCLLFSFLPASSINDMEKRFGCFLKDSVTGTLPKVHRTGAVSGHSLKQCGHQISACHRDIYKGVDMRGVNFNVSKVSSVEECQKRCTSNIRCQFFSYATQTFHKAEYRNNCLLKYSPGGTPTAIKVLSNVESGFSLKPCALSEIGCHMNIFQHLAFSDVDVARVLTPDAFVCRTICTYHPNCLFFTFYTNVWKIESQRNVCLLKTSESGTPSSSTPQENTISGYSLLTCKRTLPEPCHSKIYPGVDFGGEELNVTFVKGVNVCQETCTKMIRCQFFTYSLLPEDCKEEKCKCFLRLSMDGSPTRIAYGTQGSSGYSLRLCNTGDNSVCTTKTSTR
Outline: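 Citrated human plasma (78% final) with compound, contact-activated by 10 nM human FXIIa in pKal buffer pH 7.5, with 100 μM PFR-AMC. Fluorescence (360/480 nm) followed 5 min at room temperature; rates versus concentration fitted by 4-parameter equation for IC50/IC90.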

Chain of human activated kallikrein enzyme (P03952 391-638 limits assumed): as the sequence (P03952 391-638 limits assumed) above
Chain of human activated kallikrein enzyme (P03952 20-390 partner limits assumed): as the sequence (P03952 20-390 partner limits assumed) above

Row | SMILES | EC50 [1] [nM] | IC90 (plasma kallikrein) [nM]
1 | O=C1CN(c2cc(C3CC3)cn3cc(CNc4ccnc(NC(=O)[C@H]5C[C@@H]5c5cc(Cl)ccn5)n4)nc23)C(=O)N1 (racemic) [Example 521, rac-(1S*,2S*)-2-(4-chloropyridin-2-yl)-N-(4-(((6-cyclopropyl-8-(2,4-dioxoimidazolidin-1-yl)imidazo[1,2-a]pyridin-2-yl)methyl)amino)pyrimidin-2-yl)cyclopropane-1-carboxamide] | < 1 | 400 to 1500
2 | COCC1CN(c2cc(C3CC3)cn3cc(CNc4cc(NC(=O)[C@H]5C[C@@H]5c5cccc(Cl)c5)ncn4)nc23)CCN1C (stereo partly drawn) [Example I-6, (1S,2S)-2-(3-chlorophenyl)-N-(6-(((6-cyclopropyl-8-(3-(methoxymethyl)-4-methylpiperazin-1-yl)imidazo[1,2-a]pyridin-2-yl)methyl)amino)pyrimidin-4-yl)cyclopropane-1-carboxamide] | 1 to 10 | 1500 to 10000
3 | Cc1ccnc([C@@H]2[C@@H](C(=O)Nc3cc(NCc4cn5cc(C6CC6)cc(N6CC(=O)N(C)C6=O)c5n4)ncn3)C2(F)F)n1 (racemic) [Example 494, rac-(1S*,3S*)-N-(6-(((6-cyclopropyl-8-(3-methyl-2,4-dioxoimidazolidin-1-yl)imidazo[1,2-a]pyridin-2-yl)methyl)amino)pyrimidin-4-yl)-2,2-difluoro-3-(4-methylpyrimidin-2-yl)cyclopropane-1-carboxamide] | < 1 | < 400
4 | O=C(Nc1cc(NCc2cn3cc(C4CC4)cc(C4(O)COC4)c3n2)ccn1)[C@H]1C[C@@H]1c1cccc(Cl)c1 (racemic) [Example I-242, rac-(1S*,2S*)-2-(3-chlorophenyl)-N-(4-(((6-cyclopropyl-8-(3-hydroxyoxetan-3-yl)imidazo[1,2-a]pyridin-2-yl)methyl)amino)pyridin-2-yl)cyclopropane-1-carboxamide] | < 1 | 1500 to 10000
5 | COc1nc(NC(=O)[C@H]2C[C@@H]2c2nccc(C)n2)cc(OCc2cn3cc(C4CC4)cc(N4CC(=O)N(C)C4=O)c3n2)n1 [Example 556, (1S,2S)-N-(6-((6-cyclopropyl-8-(3-methyl-2,4-dioxoimidazolidin-1-yl)imidazo[1,2-a]pyridin-2-yl)methoxy)-2-methoxypyrimidin-4-yl)-2-(4-methylpyrimidin-2-yl)cyclopropane-1-carboxamide] | < 1 | 400 to 1500
6 | Cc1ccnc([C@H]2C[C@@H]2C(=O)Nc2cc(OCc3cn4cc(C5CC5)cc(N5CC(=O)N(C)C5=O)c4n3)nc(C)n2)n1 [Example 555, (1S,2S)-N-(6-((6-cyclopropyl-8-(3-methyl-2,4-dioxoimidazolidin-1-yl)imidazo[1,2-a]pyridin-2-yl)methoxy)-2-methylpyrimidin-4-yl)-2-(4-methylpyrimidin-2-yl)cyclopropane-1-carboxamide] | < 1 | 400 to 1500
7 | Cc1ccnc([C@H]2C[C@@H]2C(=O)Nc2cc(NCc3cn4cc(C5CC5)cc(N5CC(=O)N(C)C5=O)c4n3)nc(C3CC3)n2)n1 [Example 410, (1S,2S)-N-(2-cyclopropyl-6-(((6-cyclopropyl-8-(3-methyl-2,4-dioxoimidazolidin-1-yl)imidazo[1,2-a]pyridin-2-yl)methyl)amino)pyrimidin-4-yl)-2-(4-methylpyrimidin-2-yl)cyclopropane-1-carboxamide] | < 1 | < 400
8 | Cc1ccnc([C@H]2C[C@@H]2C(=O)Nc2cc(NC(C)c3cn4cc(C5CC5)cc(N5CC(=O)N(C)C5=O)c4n3)nc(C)n2)n1 (stereo partly drawn) [Example 454, (1S,2S)—N-(6-((1-(6-cyclopropyl-8-(3-methyl-2,4-dioxoimidazolidin-1-yl)imidazo[1,2-a]pyridin-2-yl)ethyl)amino)-2-methylpyrimidin-4-yl)-2-(4-methylpyrimidin-2-yl)cyclopropane-1-carboxamide] | < 1 | 400 to 1500
9 | Cc1ccnc([C@H]2C[C@@H]2C(=O)Nc2cc(N(C)Cc3cn4cc(C5CC5)cc(N5CC(=O)N(CCO)C5=O)c4n3)ncn2)n1 [Example 462, (1S,2S)-N-(6-(((6-cyclopropyl-8-(3-(2-hydroxyethyl)-2,4-dioxoimidazolidin-1-yl)imidazo[1,2-a]pyridin-2-yl)methyl)(methyl)amino)pyrimidin-4-yl)-2-(4-methylpyrimidin-2-yl)cyclopropane-1-carboxamide] | < 1 | < 400
10 | O=C(Nc1cc(NCc2cn3cc(C4CC4)ccc3n2)ncn1)[C@H]1C[C@@H]1c1cc(Cl)ccc1Cl (racemic) [Example 49, rac-(1S*,2S*)-N-(6-(((6-cyclopropylimidazo[1,2-a]pyridin-2-yl)methyl)amino)pyrimidin-4-yl)-2-(2,5-dichlorophenyl)cyclopropane-1-carboxamide] | 100 to 1000 | < 400
11 | Cc1cc(C)nc([C@H]2C[C@@H]2C(=O)Nc2cc(NCc3cn4cc(C5CC5)cc(N5CC(=O)N(C)C5=O)c4n3)ncn2)n1 (racemic) [Example 497, rac-(1S*,2S*)-N-(6-(((6-cyclopropyl-8-(3-methyl-2,4-dioxoimidazolidin-1-yl)imidazo[1,2-a]pyridin-2-yl)methyl)amino)pyrimidin-4-yl)-2-(4,6-dimethylpyrimidin-2-yl)cyclopropane-1-carboxamide] | < 1 | 400 to 1500
12 | Cc1ccnc([C@H]2C[C@@H]2C(=O)Nc2cc(NCc3cn4cc(C5CC5)ccc4n3)ccn2)n1 (racemic) [Example 414, rac-(1S*,2S*)-N-(4-(((6-cyclopropylimidazo[1,2-a]pyridin-2-yl)methyl)amino)pyridin-2-yl)-2-(4-methylpyrimidin-2-yl)cyclopropane-1-carboxamide] | < 1 | 10000 to 48000
13 | CN1CC(O)(c2cc(C3CC3)cn3cc(CNc4ccnc(NC(=O)[C@H]5C[C@@H]5c5cccc(Cl)c5)c4)nc23)C1 [Example 608, (1S,2S)-2-(3-chlorophenyl)-N-(4-(((6-cyclopropyl-8-(3-hydroxy-1-methylazetidin-3-yl)imidazo[1,2-a]pyridin-2-yl)methyl)amino)pyridin-2-yl)cyclopropane-1-carboxamide] | < 1 | < 400
14 | CC(C)(O)c1cc(C2CC2)cn2cc(CNc3cc(NC(=O)[C@H]4C[C@@H]4c4cc(Cl)ccc4C#N)ncn3)nc12 (racemic) [Example 337, (rac-(1S*,2S*))-2-(5-chloro-2-cyanophenyl)-N-(6-(((6-cyclopropyl-8-(2-hydroxypropan-2-yl)imidazo[1,2-a]pyridin-2-yl)methyl)amino)pyrimidin-4-yl)cyclopropane-1-carboxamide] | 1 to 10 | 10000 to 48000
15 | COc1nc(NC(=O)[C@H]2C[C@@H]2c2nccc(C)n2)cc(N(C)Cc2cn3cc(C4CC4)cc(N4CC(=O)N(C)C4=O)c3n2)n1 [Example 406, (1S,2S)-N-(6-(((6-cyclopropyl-8-(3-methyl-2,4-dioxoimidazolidin-1-yl)imidazo[1,2-a]pyridin-2-yl)methyl)(methyl)amino)-2-methoxypyrimidin-4-yl)-2-(4-methylpyrimidin-2-yl)cyclopropane-1-carboxamide] | < 1 | < 400
